In patent EP4722219A1 (Gan & Lee Pharmaceuticals Co., Ltd., priority 2023, dated 2024) one finds IC50 data, which are given here for 12 molecules.

Structures are written as SMILES.

One experiment concerns MCF-7 cells. Put plainly: Inhibition of cell proliferation in MCF-7 cells (CCK-8). To be noted: MCF-7 cell proliferation, 6 days treatment. Type of experiment: cell-based. The method, then:
Test Example 3 Inhibitory effect of PROTAC compounds provided by the present invention on cell proliferation in MCF-7 cells
The complete culture medium required for MCF-7 cells (source ATCC) is DMEM (gibco, Product number: 11995-065) basal culture medium containing 10% fetal bovine serum. MCF-7 cells were seeded in 96-well plates at a density of 800 cells/well, and different concentrations of PROTAC compounds 1-55 provided in the examples of the present invention and positive control sample ARV-471 (source: Inokai) were prepared to treat the cells and incubated at 37 °C, 5% CO2 cell culture incubator for 6 days. According to the manufacturer's instructions, cell viability was detected using a CCK-8 kit (Beyotime, Product number: C0040). The IC50 of each PROTAC compound after treating for 6 days was calculated using GraphPadPrism software based on the inhibition rate. Table 3 Inhibition IC50 value of MCF-7 cell proliferation by PROTAC compounds of the present invention and positive control sample

The subject of the next experiment is T-47D cells. Put plainly: Inhibition of cell proliferation in T-47D cells (CCK-8). The class given is cell-based. To be noted: 6 days treatment, CCK-8 cell viability. How it is done: Test Example 2 Inhibitory effect of PROTAC compounds provided by the present invention on cell proliferation in T-47D cells
The complete culture medium required for T-47D cells is 1640 (ATCC, Product number: A10491-01) basal culture medium containing 10% fetal bovine serum. T-47D cells were seeded in 96-well plates at a density of 3,000 cells/well, and different concentrations of PROTAC compounds 1-55 provided in the examples of the present invention and positive control sample ARV-471 (source: Inokai) were prepared to treat the cells and incubated at 37 °C, 5% CO2 cell culture incubator for 6 days. According to the manufacturer's instructions, cell viability was detected using a CCK-8 kit (Beyotime, Product number: C0040). The IC50 of each compound after treating for 6 days was calculated using GraphPadPrism software based on the inhibition rate. Table 2 Inhibition IC50 value of T-47D cell proliferation by PROTAC compounds provided by the present invention and positive control sample

Consider `CN(CC(=O)N1CCC2(CC1)CCC1(CC2)COc2c1ccc1c2CN(C2CCC(=O)NC2=O)C1=O)C1CCC2(CC1)CN(c1ccc([C@@H]3c4ccc(O)cc4CC[C@@H]3c3ccccc3)cc1)C2` (stereo partly drawn) [ER-P-71, 3-(1"-(N-(2-(4-((1R,2S)-6-hydroxy-2-phenyl-1,2,3,4-tetrahydronaphthalen-1-yl)phenyl)-2-azaspiro[3.5]nonan-7-yl)-N-methylglycyl)-6-oxo-6,8-dihydro-2H,7H-dipyridole[furo[2,3-e]isoindole-3,1'-cyclohexane-4',4"-piperidin]-7-yl)piperidine-2,6-dione], for which the IC50 came to 2020 nM in the experiment with MCF-7 cells (Homo sapiens, MCF7, 144 h) and 8.54 nM with T-47D cells (Homo sapiens, T47D, 144 h).

On to `CN(CC(=O)N1CC2(CCC3(CC2)COc2c3ccc3c2CN(C2CCC(=O)NC2=O)C3=O)C1)C1CCC2(CC1)CN(c1ccc([C@@H]3c4ccc(O)cc4CC[C@@H]3c3ccccc3)cc1)C2` (stereo partly drawn) [ER-P-72, 3-(1-(N-(2-(4-((1R,2S)-6-hydroxy-2-phenyl-1,2,3,4-tetrahydronaphthalen-1-yl)phenyl)-2-azaspiro[3.5]nonan-7-yl)-N-methylglycyl)-6"-oxo-6",8"-dihydro-2"H,7"H-dipyridole[azetidine-3,1'-cyclohexane-4',3"-furo[2,3-e]isoindol]-7"-yl)piperidine-2,6-dione], for which the IC50 in the experiment with MCF-7 cells (Homo sapiens, MCF7, 144 h) is 14300 nM; with T-47D cells (Homo sapiens, T47D, 144 h) it was 1.34 nM.

For the molecule `Cn1c(=O)n(C2CCC(=O)NC2=O)c2ccc3c(c21)OCC31CCN(CC2CCN(c3ccc([C@@H]4c5ccc(O)cc5CC[C@@H]4c4ccccc4)cc3)CC2)CC1` (stereo partly drawn) [ER-P-73, 3-(1'-((1-(4-((1R,2S)-6-hydroxy-2-phenyl-1,2,3,4-tetrahydronaphthalen-1-yl)phenyl)piperidin-4-yl)methyl)-1-methyl-2-oxo-1,2-dihydro-3H,7H-spiro[benzofuro[6,7-d]imidazole-6,4'-piperidin]-3-yl)piperidine-2,6-dione], the IC50 in the experiment on MCF-7 cells (Homo sapiens, MCF7, 144 h) amounted to 3270 nM; in the experiment with T-47D cells (Homo sapiens, T47D, 144 h), 49.4 nM.

Turning to `Cn1c(=O)n(C2CCC(=O)NC2=O)c2ccc3c(c21)OCC31CCN(C(=O)C2CCN(CC3CCN(c4ccc([C@@H]5c6ccc(O)cc6CC[C@@H]5c5ccccc5)cc4)CC3)CC2)CC1` (stereo partly drawn) [ER-P-74], the IC50 in the experiment with MCF-7 cells (Homo sapiens, MCF7, 144 h) was 2100 nM; in the experiment on T-47D cells (Homo sapiens, T47D, 144 h), 1.22 nM.

Consider `CN(CC(=O)N1CCC2(CC1)COc1c2ccc2c1n(C)c(=O)n2C1CCC(=O)NC1=O)CC1CCN(c2ccc([C@@H]3c4ccc(O)cc4CC[C@@H]3c3ccccc3)cc2)CC1` (stereo partly drawn) [ER-P-75, 3-(1'-(N-((1-(4-((1R,2S)-6-hydroxy-2-phenyl-1,2,3,4-tetrahydronaphthalen-1-yl)phenyl)piperidin-4-yl)methyl)-N-methylglycyl)-1-methyl-2-oxo-1,2-dihydro-3H,7H-spiro[benzofuro[6,7-d]imidazole-6,4'-piperidin]-3-yl)piperidine-2,6-dione], for which the concentration for half-maximal inhibition (IC50) in the experiment on MCF-7 cells (Homo sapiens, MCF7, 144 h) turned out to be 3000 nM; in the experiment with T-47D cells (Homo sapiens, T47D, 144 h), 1.16 nM.

In the case of `O=C1CCC(N2Cc3c(ccc4c3OCC43CCC4(CCN(C(=O)C5CCN(c6ccc([C@@H]7c8ccc(O)cc8CC[C@@H]7c7ccccc7)cc6)CC5)CC4)CC3)C2=O)C(=O)N1` (stereo partly drawn) [ER-P-76, 3-(1"-(1-(4-((1R,2S)-6-hydroxy-2-phenyl-1,2,3,4-tetrahydronaphthalen-1-yl)phenyl)piperidine-4-carbonyl)-6-oxo-6,8-dihydro-2H,7H-dipyridole[furo[2,3-e]isoindole-3,1'-cyclohexane-4',4"-piperidin]-7-yl)piperidine-2,6-dione], the IC50 in the experiment with MCF-7 cells (Homo sapiens, MCF7, 144 h) was > 100000 nM; with T-47D cells (Homo sapiens, T47D, 144 h) it was 5.75 nM.

As for `Cn1c(=O)n(C2CCC(=O)NC2=O)c2ccc3c(c21)C1(CCN(C2CCN(C(=O)C4CCN(c5ccc([C@@H]6c7ccc(O)cc7CC[C@@H]6c6ccccc6)cc5)CC4)CC2)CC1)CO3` (stereo partly drawn) [ER-P-77, 3-(1'-(1-(4-(((1R,2S)-6-hydroxy-2-phenyl-1,2,3,4-tetrahydronaphthalen-1-yl)phenyl)piperidine-4-carbonyl)piperidin-4-yl)-1-methyl-2-oxo-1,2-dihydro-3H,7H-spiro[benzofuro[4,5-d]imidazole-8,4'-piperidin]-3-yl)piperidine-2,6-dione], the IC50 turned out to be 84.7 nM in the experiment on MCF-7 cells (Homo sapiens, MCF7, 144 h) and 1.87 nM with T-47D cells (Homo sapiens, T47D, 144 h).

For the molecule `O=C1CCC(N2Cc3c(ccc4c3OCC43CCC4(CC3)CN(CC3CCC(OC5CCN(c6ccc([C@@H]7c8ccc(O)cc8CC[C@@H]7c7ccccc7)cc6)CC5)CC3)C4)C2=O)C(=O)N1` (stereo partly drawn) [ER-P-78, 3-(1-(((1S,4S)-4-((1-(4-((1R,2S)-6-hydroxy-2-phenyl-1,2,3,4-tetrahydronaphthalen-1-yl)phenyl)piperidin-4-yl)oxy)cyclohexyl)methyl)-6"-oxo-6'',8''-dihydro-2"H,7"H-dipyrine[azetidine-3,1'-cyclohexane-4',3"-furo[2,3-e]isoindol]-7"-yl)piperidine-2,6-dione], the IC50 came to 737 nM with MCF-7 cells and 5.8 nM in the experiment on T-47D cells.

Take `O=C1CCC(N2Cc3c(ccc4c3OCC43CCC4(CCN(C[C@H]5CC[C@@H](OC6CCN(c7ccc([C@@H]8c9ccc(O)cc9CC[C@@H]8c8ccccc8)cc7)CC6)CC5)CC4)CC3)C2=O)C(=O)N1` (stereo partly drawn) [ER-P-79, 3-(1"-(((1S,4S)-4-((1-(4-((1R,2S)-6-hydroxy-2-phenyl-1,2,3,4-tetrahydronaphthalen-1-yl)phenyl)piperidin-4-yl)oxy)cyclohexyl)methyl)-6-oxo-6,8-dihydro-2H,7H-dispiro[furo[2,3-e]isoindole-3,1'-cyclohexane-4',4"-piperidin]-7-yl)piperidine-2,6-dione]: the results for the IC50 in the experiment on MCF-7 cells and in the experiment with T-47D cells were 63.4 nM and 8.46 nM, respectively.

Take `Cn1c(=O)n(C2CCC(=O)NC2=O)c2cc3c(cc21)OC1(CC3)CCN(CC2CC(OC3CCN(c4ccc([C@@H]5c6ccc(O)cc6CC[C@@H]5c5ccccc5)cc4)CC3)C2)CC1` (stereo partly drawn) [ER-P-81, 3-(1'-(((1S,3s)-3-((1-(4-((1R,2S)-6-hydroxy-2-phenyl-1,2,3,4-tetrahydronaphthalen-1-yl)phenyl)piperidin-4-yl)oxy)cyclobutyl)methyl)-3-methyl-2-oxo-2,3,7,8-tetrahydro-1H-spiro[chromeno[6,7-d]imidazole-6,4'-piperidin]-1-yl)piperidine-2,6-dione]: the IC50 with MCF-7 cells was 1.6 nM; in the experiment on T-47D cells, 2.57 nM.

As to `O=C1CC[C@H](NC(=O)c2ccc3c(c2F)OCC32CCN(CC3CCC(OC4CCN(c5ccc([C@@H]6c7ccc(O)cc7CC[C@@H]6c6ccccc6)cc5)CC4)CC3)CC2)C(=O)N1` (stereo partly drawn) [ER-P-82, N-((S)-2,6-dioxopiperidin-3-yl)-7-fluoro-1'-(((1S,4R)-4-((1-(4-((1R,2S)-6-hydroxy-2-phenyl-1,2,3,4-tetrahydronaphthalen-1-yl)phenyl)piperidin-4-yl)oxy)cyclohexyl)methyl)-2H-spiro[benzofuran-3,4'-piperidine]-6-carboxamide], the IC50 turned out to be 4390 nM in the experiment on MCF-7 cells and 28.1 nM with T-47D cells.

On to `O=C1CC[C@H](NC(=O)c2cc3c(cc2F)OCC32CCN(CC3CCC(OC4CCN(c5ccc([C@@H]6c7ccc(O)cc7CC[C@@H]6c6ccccc6)cc5)CC4)CC3)CC2)C(=O)N1` (stereo partly drawn) [ER-P-83, N-((S)-2,6-dioxopiperidin-3-yl)-6-fluoro-1'-(((1S,4R)-4-((1-(4-((1R,2S)-6-hydroxy-2-phenyl-1,2,3,4-tetrahydronaphthalen-1-yl)phenyl)piperidin-4-yl)oxy)cyclohexyl)methyl)-2H-spiro[benzofuran-3,4'-piperidine]-5-carboxamide], for which the IC50 came out at 4330 nM with MCF-7 cells and 138 nM with T-47D cells.
